We go through two molecules from the NIST ThermoML archive (doi:10.1016/j.fluid.2019.01.011).

The structures appear in SMILES notation. ± gives the expanded uncertainty stated by the source.

For the data set the following is noted: Crystal; DSC.

In the case of `[Cl-].[Cs+]` [cesium chloride], the Triple point temperature is recorded as 918 ± 10 K.
In the case of `[Cl-].[Cl-].[Zn+2]` [zinc chloride], the Triple point temperature amounted to 587 ± 10 K.
